Publication PMC9501232, “Novel 4-Azapregnene Derivatives as Potential Anticancer Agents: Synthesis, Antiproliferative Activity and Molecular Docking Studies” (Molecules, 2022)

Tests used:
[1] = tested on: caspase-9 activity in T47-D cells; experiment: Caspase-Glo 9 caspase-9 activity assay; assay type: cell-based, human; settings: 48 h, DOX 10 µM, 3g 10 and 20 µM, relative to untreated cells
Method: Promega Caspase-Glo 9 assay (Promega, Madison, WI, USA) was employed to evaluate the caspase-9 activity. T47-D cells were seeded in a 96 multiwell plate at a density of 4 × 10^4 cells/mL. After 48 h, cells were treated with the positive control, DOX, at 10 μM and with 10 and 20 μM of 3g, during 48 h. The assay was performed at the end of treatment, following the instructions provided by the manufacturer. Data are representative of at least two experiments (n = 4 in each).

[2] = tested on: LNCaP cells; experiment: MTT cell proliferation assay, LNCaP; assay type: cell-based, human; settings: 30 µM, 72 h, average ± SD
Method: (§1) Cell lines, namely LNCaP, PC-3, T47-D and NHDF were obtained from American Type Culture Collection (ATCC; Manassas, VA, USA) and cultured in 75 cm^2 culture flasks at 37 °C in a humidified air incubator with 5% CO2. LNCaP, PC-3 and T47-D cells, which were used in passages 20th to 27th, 25th to 29th and 10th to 15th, respectively, were cultured in RPMI 1640 medium (Sigma-Aldrich, Inc., St. Louis, MO, USA) with 10% fetal bovine serum (FBS; Sigma-Aldrich, Inc. St. Louis, MO, USA) and 1% of the antibiotic mixture of 10,000 IU/mL penicillin G and […] of streptomycin (Sp, Sigma-Aldrich, Inc. St. Louis, MO, USA). Finally, NHDF cells (Normal Human Dermal Fibroblasts) were cultured in RPMI 1640 medium supplemented with 10% FBS, 2 mM L-glutamine, 10 mM HEPES, 1 mM sodium pyruvate and 1% of an antibiotic/antimycotic mixture (10,000 U/mL penicillin G, 100 mg/mL streptomycin and 25 µg/mL amphotericin B) (Ab; Sigma-Aldrich, Inc. St. Louis, MO, USA), and these cells were used in passages 10 to 12. For all cell types, the medium was renewed every 2–3 days until cells reach nearly the confluence state. Then, they were detached gently by trypsinization (trypsin-EDTA solution: 0.125 g/L of trypsin and 0.02 g/L of EDTA).
(§2) All the stock solutions were prepared by dissolving compounds in dimethyl sulfoxide (DMSO; Sigma-Aldrich, Inc., St. Louis, MO, USA) at 10 mM and stored at 4 °C. From these solutions, the several diluted compounds solutions in different concentrations were freshly prepared in a complete culture medium before each experiment.
(§3) As previously referred, cells were trypsinized after reaching a near confluence state and counted by the trypan blue exclusion assay in a Neubauer chamber. Then, 100 µL of cell suspension/well with an initial density of 2 × 10^4 cells/mL were seeded in 96-well culture plates (Nunc, Apogent, Denmark) and left to adhere for 48 h. After cells adherence, the medium was replaced by the distinct solutions of the compounds in the study (30 µM for preliminary studies and 0.01, 0.1, 1, 10, 50 and 100 µM for concentration–response studies) in the appropriate medium for approximately 72 h. 5-FU and finasteride were used as positive controls and untreated cells were used as the negative control. Each experiment was performed in quadruplicate and independently performed at least two times. The in vitro antiproliferative effects were evaluated by the MTT assay (Sigma-Aldrich, Inc. St. Louis, USA). After the incubation period, the medium was removed and 100 µL of phosphate buffer saline (NaCl 137 mM, KCl 2.7 mM, Na2HPO4 10 mM and KH2PO4 1.8 mM in deionized water and pH adjusted to 7.4) were used to wash the cells. Then, 100 µL of the MTT solution (5 mg/mL) was prepared in the appropriate serum-free medium and was added to each well, followed by incubation for 4 h at 37 °C. Hereafter, the MTT containing medium was removed and the formazan crystals were dissolved in DMSO. Then the absorbance was measured at 570 nm using a microplate spectrophotometer BIO-RAD xMarkTM. Cell viability values were expressed as percentages relative to the absorbance determined in the cells used as negative controls.
(§4) The data are expressed as a mean ± standard deviation (SD) and differences between groups were considered statistically significant when p < 0.05. The IC50 values were determined through sigmoidal fitting analysis with variable slope and considering a 95% confidence level. All data shown are representative of at least two independent experiments.

[3] = tested on: PC-3 cells; experiment: MTT cell proliferation assay, PC-3; assay type: cell-based, human; settings: PC-3, 30 µM, 72 h, average ± SD
Method: as §1, §2, §3, §4

[4] = tested on: T47-D cells; experiment: MTT cell proliferation assay, T47-D; assay type: cell-based, human; settings: 30 µM, 72 h, average ± SD
Method: as §1, §2, §3, §4

[5] = tested on: NHDF cells (Normal Human Dermal Fibroblasts); experiment: MTT cell proliferation assay, NHDF; assay type: cell-based; settings: 30 µM, 72 h, average ± SD
Method: as §1, §2, §3, §4

[6] = tested on: LNCaP cells; experiment: Microscopic cell morphology observation; assay type: cell-based, human; settings: 24 and 72 h of treatment
Method: In our previous work, 16E-arylidene-4-azaandrost-5-ene derivatives were synthesized, their antiproliferative effects were evaluated and further studies were performed with the most promising steroid in LNCaP cells. Due to the similarity of 16E-arylidene-4-azaandrostenes and these novel 21E-arylidene-4-azapregnene derivatives, identical studies in this cell line were performed, namely a flow cytometry assay and microscopic cell morphology observation. To assess the viability of LNCaP cells when exposed to steroid 3g, a flow cytometry assay after PI staining was performed. Cells were treated with 3g and 5-FU during 24 and 72 h, and then a microscopic cell observation was performed to assess the possible morphological alterations and cell density changes triggered by incubation with 3g and compare with controls (Figure 6).
Similar to the previous study, the analysis of cell viability was accomplished by flow cytometry after staining dead cells with propidium iodide (PI; Invitrogen, Carlsbad, USA). Succinctly, 1 mL of a cell suspension was seeded in 12-well culture plates (initial cell density of 5 × 10^4 cells/mL of LNCaP cells for 24 h assay and 2 × 10^4 cells/mL of the same cell line for 72 h assay) in a complete culture medium. […] The percentages of each region were calculated for a total of R1 + R2 + R3. […]

Structure (SMILES)	Caspase-9 activity [1]	MTT screening, cell proliferation [2]	MTT screening, cell proliferation [3]	MTT screening, cell proliferation [4]	MTT screening, cell proliferation [5]	Cell morphology and cell density [6]
COc1cccc2c1C(=O)c1c(O)c3c(c(O)c1C2=O)C[C@@](O)(C(=O)CO)C[C@@H]3O[C@H]1C[C@H](N)[C@H](O)[C@H](C)O1 [DOX, doxorubicin, reference compound]	significant elevation in caspase-9 activity	–	–	–	–	–
CC(C)(C)NC(=O)[C@H]1CC[C@H]2[C@@H]3CC[C@H]4NC(=O)C=C[C@]4(C)[C@H]3CC[C@]12C [Finasteride, reference compound]	–	88.5 ± 2.4 percentage of negative control	78.8 ± 8.7 percentage of negative control	103.5 ± 17.8 percentage of negative control	62.8 ± 5.9 percentage of negative control	cell density reduction and the preservation of healthy cells morphology
